Reference: US5447937A, “CNS active tetrahydrobenzothienopyridines” (SmithKline Beecham p.l.c., priority 1991, dated 1995)
pIC50: −log10 of the molar value.

Assays:
Rats = assay: Geller-Seifter procedure (conflict session, anxiolytic properties); assay type: in vivo, rat; conditions: FR5 conflict session
Procedure: 1. Geller-Seifter Procedure
Potential anxiolytic properties have been evaluated using the Geller-Seifter procedure based on that originally described by Geller and Seifter, (1960) Psychopharmacologia, 1,482-492.
Rats are trained on a variable interval 30 sec schedule (VI30) to press a lever in order to obtain food reward. The 5 min sessions of the VI30 schedule alternate with 2-5 min of a schedule (FR5) in which every 5th lever press is followed by presentation of a food pellet paired with a 0.5 sec mild footshock. The total study lasts approximately 30 mins. Rats typically respond with high rates of lever pressing under the VI30 schedule and low response rates under the FR5 `conflict` session. Anxiolytic drugs increase the suppressed response rates of rats in `conflict` session.
Drugs are administered intraperitoneally or orally to groups of 3-8 rats 30 min before testing.
The results are expressed as the percentage increase in square root of the total number of lever presses in the FR5 `conflict` session. Square root transformation is necessary to normalise the data for statistical analysis using parametric methods (ANOVA).

[1] = target: rat cerebral cortex membranes ([35S]-TBPS binding); assay: [35S]-TBPS binding to rat cerebral cortex membranes in vitro; conditions: 2 nM [35S]-TBPS, 5x10^-6 M GABA
Procedure: 2. [^35 S]-TBPS binding to rat cerebral cortex membranes in vitro
Pooled rat cerebral cortices are homogenised in 20 volumes of 0.32M sucrose and centrifuged at 1000 g for 20 minutes (4° C.). The supernatant is removed and recentrifuged at 50,000 g (4° C., 20 mins). The P2 pellet is then suspended in 20 volumes of Tris citrate buffer (pH 7.1) and centrifuged at 50,000 g (4° C., 20 mins). This washing step is repeated three times and the pellet finally resuspended in 20 volumes of buffer and stored at -70° C. prior to use.
The tissue suspension ([…]) is incubated (25° C., 120 mins) with [^35 S]-TBPS (2 nM) in Tris citrate buffer (pH 7.1) containing 0.2M NaCl and 5×10^-6 M GABA. Non-specific binding is measured in the presence of 10^-4 M picrotoxin. Varying concentrations of test drugs (10^-7, 10^-6, 10^-5 and 10^-4 M final concentration) are added in a volume of […]. The total assay volume is […]. Incubation is stopped by rapid filtration using a Skatron cell harvester and radioactivity measured by liquid scintillation spectrometry. IC50 's are calculated as the concentration of test drug to inhibit 50% of specific binding.

Mice = assay: MES Test (maximal electroshock seizure); assay type: in vivo, mouse; conditions: 100 mg/kg p.o.
Procedure: The maximal electroshock seizure (MES) test in rodents is one of the most widely used models of human grand mal epilepsy^1. In this model, anticonvulsant agents elevate the threshold to electrically-induced seizures whilst proconvulsants lower the seizure threshold.
Mice (male, Charles River, U.K. CD-1 strain, 25-30 g) are randomly assigned to groups of 10-20 and dosed orally or intraperitoneally at a dose volume of 10 ml/kg with various doses of compound (1-100 mg/kg) or vehicle. Mice are then subjected at 30 or 60 rain post dose to a variable voltage electroshock (0.1 sec., 50 Hz, sine wave form) via a buccal and a subcutaneous electrode. The mean voltage and standard error required to induce a tonic seizure in 50% (CV50) of the mice in the group is determined by the `up and down` method of Dixon and Mood (1948)^2. Statistical comparisons between vehicle- and drug-treated groups are made using the method of Litchfield and Wilcoxon (1949)^3.
If a tonic convulsion does occur, then the voltage is decreased, and so on until all the animals in the group have been tested.
The percentage increase or decrease in CV50 for each group compared to the control is calculated.
Studies are carried out using a Heathkit shock generator with totally variable control of shock level from 0 to 200 V and voltage steps of 5 V are used.
Drugs are suspended in 1% methyl cellulose.

Compound	responding in the 'conflict' session (Rats; 20 mg/kg p.o.)	responding in the 'conflict' session (Rats; 10 mg/kg p.o.)	pIC50 [1]	CV50 (voltage inducing tonic seizure in 50% of mice) (Mice)
COC(=O)c1c(C)nc2sc3c(c2c1N)CCC(O)C3 (racemic) [Example 7, (±)-4-Amino-7-hydroxy-2-methyl-5,6,7,8-tetrahydrobenzo[b]thieno[2,3-b]pyridine-3-carboxylic acid, methyl ester]	significant increase			
C=CCCOC(=O)c1c(C)nc2sc3c(c2c1N)CCC(O)C3 (racemic) [Example 10, (±)-4-Amino-7-hydroxy-2-methyl-5,6,7,8-tetrahydrobenzo[b]thieno[2,3-b]pyridine-3-carboxylic acid, but-3-enyl ester]	significant increase			
C#CCCOC(=O)c1c(C)nc2sc3c(c2c1N)CCC(O)C3 (racemic) [Example 9, (±)-4-Amino-7-hydroxy-2-methyl-5,6,7,8-tetrahydrobenzo[b]thieno[2,3-b]pyridine-3-carboxylic acid, but-3-ynyl ester]		significant increase		
CCOC(=O)c1c(C)nc2sc3c(c2c1N(C)C)CCC(OC)C3 (racemic) [Example 19, (±)-4-Dimethylamino-7-methoxy-2-methyl-5,6,7,8-tetrahydrobenzo[b]thieno[2,3-b]pyridine-3-carboxylic acid, ethyl ester]			> 4.70	
CC#CCOC(=O)c1c(C)nc2sc3c(c2c1N)CCC(O)C3 (racemic) [Example 4, (±)-4-Amino-7-hydroxy-2-methyl-5,6,7,8-tetrahydrobenzo[b]thieno[2,3-b]pyridine-3-carboxylic acid, but-2-ynyl ester]	significant increase		> 4.70	
CCOC(=O)c1c(C)nc2sc3c(c2c1N)CCC(O)C3 (racemic) [Example 1, (±)-4-Amino-7-hydroxy-2-methyl-5,6,7,8-tetrahydrobenzo[b]thieno[2,3-b]pyridine-3-carboxylic acid, ethyl ester]	significant increase		> 4.70	significant increase
C#CCOC(=O)c1c(C)nc2sc3c(c2c1N)CCC(O)C3 (racemic) [Example 8, (±)-4-Amino-7-hydroxy-2-methyl-5,6,7,8-tetrahydrobenzo[b]thieno[2,3-b]pyridine-3-carboxylic acid, prop-2-ynyl ester]		significant increase		
Cc1nc2sc3c(c2c(N)c1C(=O)OCC1CCC1)CCC(O)C3 (racemic) [Example 5, (±)-4-Amino-7-hydroxy-2-methyl-5,6,7,8-tetrahydrobenzo[b]thieno[2,3-b]pyridine-3-carboxylic acid, cyclobutylmethyl ester]			> 4.70	
CCOC(=O)c1c(C)nc2sc3c(c2c1N)CCC(O)C3 (single isomer, unassigned; (+)) [Example 3, (+)-4-Amino-7-hydroxy-2-methyl-5,6,7,8-tetrahydrobenzo[b]thieno[2,3-b]pyridine-3-carboxylic acid, ethyl ester]			> 4.70	
Cc1nc2sc3c(c2c(N)c1C(=O)OCC1CC1)CCC(O)C3 (racemic) [Example 6, (±)-4-Amino-7-hydroxy-2-methyl-5,6,7,8-tetrahydrobenzo[b]thieno[2,3-b]pyridine-3-carboxylic acid, cyclopropylmethyl ester]	significant increase		> 4.70	
